# Bridge positions count the residues as written; N and C are the ends. Ends that are not written are not given here.
# Tests used:
# [1] = system: CFA-induced thermal hyperalgesia; settings: rats; cited from earlier work
# Experimental: An inhibition of ASIC3 was reported to be an attractive approach to producing analgesia. […] Other nonspecific substances can also influence ASIC3 activity. […] Several ligands with inhibitory properties were found for this receptor, each of which was able to induce analgesia in animal tests. The most well-known inhibitor APETx2 in various studies has been tested on models of acid-induced muscle pain model, CFA-induced inflammatory pain model (at doses of 0.07, 0.22 and 2.2 µM). Ugr9-1 was studied in models of CFA-induced thermal hyperalgesia and acetic acid writhing test (at doses of 0.5, 0.1, and 0.01 mg/kg). […] The nonspecific actions on other cellular targets and the changes of ASIC3 involvement in the inflammatory process induced by the high antagonists’ concentration for 2 h are suspected. We conclude that the inhibition of both components of ASIC3 currents could be beneficial but could be reversed by hormesis in high doses and during a long exposure to ...
# ASIC3 = settings: cited from earlier work
# Description: (§1) An inhibition of ASIC3 was reported to be an attractive approach to producing analgesia. […] Other nonspecific substances can also influence ASIC3 activity.
# animal models of pain = settings: cited from earlier work
# [2] = system: proton-gated currents in DRG neurons; parameters: method as in PMID 25395088; settings: cited from earlier work
# [3] = system: voltage-gated Na^+-channels; parameters: method as in PMID 22648244; settings: cited from earlier work
# ASIC1a = settings: cited from earlier work
# Description: as §1
# ASIC1b = settings: cited from earlier work
# Description: as §1
# human ASIC3 = target: T1, human ASIC3 (Homo sapiens, UniProt Q9UHC3); assay: Inhibition of transient hASIC3 current, two-electrode voltage clamp, Xenopus laevis oocytes; assay type: cell-based
# T1 construct: host or cells: Xenopus laevis oocytes (cRNA injection)
# T1 sequence (Q9UHC3 1-531): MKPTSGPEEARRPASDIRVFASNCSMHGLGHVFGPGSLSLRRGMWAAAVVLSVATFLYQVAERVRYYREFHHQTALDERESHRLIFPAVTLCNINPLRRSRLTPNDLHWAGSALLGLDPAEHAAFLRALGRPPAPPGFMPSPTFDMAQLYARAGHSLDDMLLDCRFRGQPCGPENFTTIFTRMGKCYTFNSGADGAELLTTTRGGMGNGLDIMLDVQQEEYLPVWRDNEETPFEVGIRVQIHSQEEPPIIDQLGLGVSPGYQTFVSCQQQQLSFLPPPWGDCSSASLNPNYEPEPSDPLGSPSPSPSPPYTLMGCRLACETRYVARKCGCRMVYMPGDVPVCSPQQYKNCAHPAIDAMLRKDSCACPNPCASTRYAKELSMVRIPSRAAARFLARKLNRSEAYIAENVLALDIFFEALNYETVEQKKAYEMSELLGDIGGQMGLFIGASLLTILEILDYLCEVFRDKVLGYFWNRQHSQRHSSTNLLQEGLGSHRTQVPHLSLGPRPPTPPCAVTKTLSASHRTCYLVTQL
# Experimental: The activity of ligands was checked on human ASIC3 (hASIC3) channels expressed in Xenopus laevis oocytes. […] Two different protocols were used to reveal the effects of ligands on sustained and transient components of acid-induced hASIC3 currents. The influence of the compounds on the transient current amplitude was estimated after preincubation for 15 s before the activation in a low alkali bath solution (pH 7.8), which ensured an absence of steady-state desensitization for the transient current (Figure 1A). The compounds’ inhibition effectiveness was calculated using the value of maximal amplitudes. […] The inhibitory effect was concentration-dependent and fit well using a logistic equation.
# Figure 1 Comparison of ligands’ antagonistic effects on hASIC3 channels. Whole-cell currents were induced by pH drops and recorded at the holding potential −50 mV. (A) Effect of ligands on the transient component of current at conditioning pH 7.8. The control trace is shown first; (B) Effect of ligands on the sustained component at conditioning pH 7.3. The black line is the control trace, and the red line is the trace of activation in the presence of a ligand. Dose-response curves for transient (C) and sustained (D) currents’ inhibitions are shown. Data are shown as mean ± SEM (n = 4–6) and fitted with the logistic equation (solid lines).
# X. laevis oocytes were removed surgically and defolliculated by collagenase (Sigma-Aldrich, Moscow, Russia). Oocytes were injected with 2.5 to 10 ng of human ASIC3 cRNA (AF057711.1). The cRNA transcripts were synthesised from a NaeI-linearized ASIC3 cDNA template (pcDNA3.1+humanASIC3 subcloned from clone EX-Q0260- B02 (GeneCopoeia, Inc., Rockville, MD USA) using a HiScribe T7 High Yield RNA Synthesis Kit (New England Biolabs, Ipswich, MA, USA) according to the manufacturer’s protocol for capped transcripts. After the injection, oocytes were kept for 3 to 6 days at 19° in a ND-96 medium containing (in mM) 96 NaCl, 2 KCl, 1.8 CaCl2, 1 MgCl2, and 5 HEPES titrated to pH 7.4 with NaOH supplemented with gentamycin (50 µg/mL). Two-electrode voltage clamp recordings were performed using a GeneClamp 500 amplifier (Axon Instruments, Union City, CA, USA), and the data were filtered at 20 Hz and digitized at 100 Hz by an AD converter L780 (LCard, Moscow, Russia) using in-house software. To induce transient and/or sustained currents, two different protocols with different conditioning pH were used. Microelectrodes were filled with a 3 M KCl solution. The working buffer solution was ND-96 titrated by NaOH to pH 7.8 or 7.3. The solution for the pH shift was constructed based on the ND-96 solution, in which 5 mM HEPES was replaced with 10 mM acetic acid (pH 4.0) or 10 mM MES (pH 5.5) in a supplementary 0.1% BSA solution. The duration of the activation pulses was 3.5 s.
# The analysis of the electrophysiological data was performed using the OriginPro 8.6 programme.
# mice = assay: Open field test; assay type: in vivo, CD-1 mice; settings: 1 mg/kg intramuscular, 4 h before; n = 6–7
# Experimental: An open field test was carried out on mice to estimate the possible sedative effects of compounds administration. No statistically significant changes were detected between ASIC3 antagonist-treated groups and the control animals group in 5-min observations of 12 parameters.
# Figure 2 Open field experiments on mice. Administration of compounds at a 1 mg/kg dose intramuscularly was done 4 h before of the measurements. (A) Travelling distance and (B) locomotion activity presented as mean ± SEM for 5-min recording period (n = 6–7).
# Adult male CD-1 mice (Animal Breeding Facility Branch of Shemyakin-Ovchinnikov Institute of Bioorganic Chemistry, Russian Academy of Sciences, Pushchino, Russia) weighing 20–25 g were used. Animals that originally passed clinical examination that confirmed no deviations in health were divided into groups (at least eight male mice per group) using the principle of randomization. The average body weight of animals in each group was not statistically different between groups. Animals were housed at room temperature (23 ± 2 °C) and subjected to a 12-h light-dark cycle with food and water available ad libitum. All experiments were performed after receiving approval from the Animal Care and Use Committee of the Branch of the Institute of Bioorganic Chemistry, Russian Academy of Sciences (IBCh RAS) (Pushchino, Russia Federation). The samples were administered intramuscularly 2 h before testing (4 h in the open field test). The initial dose of 1 mg/kg was investigated for all samples, which was further reduced 5, 50, and 500 times for peptides.
# In the locomotion measurements, exploration and anxiety were evaluated in the motor activity test on a computerized TSE Multi Conditioning System (TSE Systems GmbH, Bad Homburg, Germany). Four hours after the administration of the sample, the measurement was made, which lasted for 3 min. […]
# The data significance in animal tests was determined by an analysis of variance followed by a Tukey’s test. […]
# hERG channels = settings: cited from earlier work
# Experimental: Moreover, APETx2 potentiates rat ASIC1b and ASIC2a at concentrations of 3–10 µM (30–100-fold higher than its ASIC3 inhibitory concentration), which may have implications for its use in in vivo experiments ...
compound,measurement,setting,value
CC(C)C1c2cc(C3CC3c3ccc4cc(C(=N)N)ccc4c3)ccc2CCN1C (stereo not drawn) [A-317567],"Analgesic effect, CFA inflammatory thermal hyperalgesia",[1],produced an analgesic effect
same,Inhibition of ASIC3 sustained and transient currents,ASIC3,blocked ASIC3’s sustained and transient currents
"COc1cc2c(cc1OC)[C@@H]1Cc3ccc(OC)c(OC)c3CN1CC2 [Levo-tetrahydropalmatine, reference compound]",Nociceptive response to intraplantar acetic acid,animal models of pain; rats,inhibited the nociceptive response to intraplantar acetic acid injections
same,Effect on amplitude of proton-gated currents,[2],decreased the amplitude of proton-gated currents
N=C(N)NC(=O)c1nc(Cl)c(N)nc1N [amiloride],Inhibition of ASICs / ASIC3,ASIC3,nonspecific inhibitory effect on ASICs
COc1ccc2ccc(=O)oc2c1CC=C(C)C [osthol],Inhibition of ASIC3,ASIC3,inhibit ASIC3
same,Block of voltage-gated Na+-channels,[3],block voltage-gated Na^+-channels
O=C(O)c1ccccc1O [salicylic acid],Inhibition of ASIC3 / ASICs currents,ASIC3; sensory neurons and heterologous-expressed ASIC3,inhibit ASICs currents directly on sensory neurons and heterologous-expressed ASIC3 channels
CCCCNc1ccc(C(=O)OCCN(C)C)cc1 [tetracaine],Inhibition of ASIC1a currents,ASIC1a,inhibited the ASIC1a and ASIC1b currents
same,Inhibition of ASIC1b currents,ASIC1b,inhibited the ASIC1a and ASIC1b currents
same,Inhibition of transient ASIC3 currents,ASIC3; dependence on extracellular pH,inhibit the transient ASIC3 currents in a concentration-dependent manner
"GTACSCGNSKGIYWFYRPSCPTDRGYTGSCRYFLGTCCTPAD (disulfide 4-37, 6-30, 20-38) [APETx2]",IC50,human ASIC3,344 ± 80 nM
same,"Travelled distance, time spent freezing, distance in the central area versus control",mice,each of these differences was nonsignificant
same,Inhibition of hERG channels,hERG channels,reducing the maximal current amplitude and shifting the voltage dependence of activation to more positive potentials
"psalmotoxin 1 (EDCIPKWKGCVNRHGDCCEGLECWKRRRSFEVCVPKTPKT; UniProt P60514 1-40, looked up) [reference compound]",Analgesic effect by blockade of ASIC1a in CNS,animal models of pain; CNS,activation of the endogenous enkephalin pathway and potent analgesic effects
